Here are results for 29 compounds from US20210330611A1, “THERAPY FOR NEUROLOGICAL DISEASES/DISORDERS” (priority 2020, published 2021).

For data set [1], the system named is primary rat microglia.
For data set [2], the system named is fibrin- and LPS-induced microglia activation. The data set is described as follows: cells. It counts as cell-based, rat. The note with it: for inhibition at 10 µM: Rattus norvegicus, Microglia.
Data set [3] has as its system LPS-induced microglia activation. Kind of data set: Image-based assay of LPS-induced microglia activation (HTS and dose response). It counts as cell-based, rat.
Data set [4] deals with fibrin-induced microglia activation. The data set is described as follows: Image-based assay of fibrin-induced microglia activation (HTS and dose response). It counts as cell-based, rat. The following applies: for inhibition at 10 µM: Rattus norvegicus, Microglia, read-out: Fibrin % inhibition.
Data set [5] relates to primary rat microglia. The source holds these as a separate data set.
The mark [6] stands for this setting: quadrant by fibrin and LPS inhibition in HTS of 1907 compounds.
Setting [7] is: classification by fibrin and LPS inhibition, HTS at 10 μM.
[8] abbreviates: Rattus norvegicus, Microglia, primary microglia HTS, LPS stimulation, compounds at 10 μM; read-out: LPS % inhibition.
Setting [9] is: primary microglia HTS, fibrin stimulation, compounds at 10 μM.
Setting [10] is: Rattus norvegicus, Microglia, 48 h, read-out: LPS % inhibition.
[11] abbreviates: classification by fibrin and LPS inhibition in HTS.
Where [12] appears, read: Rattus norvegicus, Microglia, 48 h; read-out: LPS % inhibition.
Setting [13] is: primary microglia HTS, fibrin stimulation, cell size >800 μm2 as marker of activation.

Structures can show the parent of a compound that is named as a salt. Where two headings read alike, the source gives them in different places. Some results are limits rather than exact numbers.
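For Fibrin % cell toxicity in this document: share of dead cells sized under 150 µm2 at 10 µM in fibrin-stimulated microglia HTS.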

For `CC1(C)S[C@@H]2[C@H](NC(=O)[C@H](N)c3ccc(O)cc3)C(=O)N2[C@H]1C(=O)O` [Amoxicillin], in the data set with primary rat microglia [1] (rat), the “Fibrin % cell toxicity” value is listed as 0%. The “Quadrant (FIG. 5b)” value in data set [2] is “Q4”. In addition, the inhibition at 10 µM was 12% in data set [3] (Rattus norvegicus, Microglia, read-out: LPS % inhibition) and -14% in data set [4].

In the case of `CCCCCCCCCCCCCCCC[n+]1ccccc1` [Cetylpyridinium Bromide], the “Fibrin % cell toxicity” value in the data set with primary rat microglia [1] (rat) was 25%. In addition, the “Quadrant (FIG. 5b)” value in data set [2] is reported as “Q2”. Also, in the data set on primary rat microglia [5] (rat), the “LPS % cell toxicity” value stood at 39%.

For `C(=C\c1ccccc1)/CN1CCN(C(c2ccccc2)c2ccccc2)CC1` [Cinnarizine], the “Fibrin % cell toxicity” value in the data set with primary rat microglia [1] (rat) was found to be 1%. In addition, the “Quadrant (FIG. 5b)” value in data set [2] is given as “Q4”. In addition, in the data set on primary rat microglia [5] (rat), the “LPS % cell toxicity” value worked out at 0%.

As for `NC(=O)C(c1ccccc1)(c1ccccc1)[C@@H]1CCN(CCc2ccc3c(c2)CCO3)C1` [Darifenacin Hydrobromide], the “Fibrin % cell toxicity” value in the data set on primary rat microglia [1] (rat) is listed as 1%. In addition, in the data set with primary rat microglia [5] (rat), the “LPS % cell toxicity” value was 0%.

In the case of `C[C@@H]1C[C@H]2[C@@H]3CCC4=CC(=O)C=C[C@]4(C)[C@@]3(F)[C@@H](O)C[C@]2(C)[C@@]1(O)C(=O)COP(=O)(O)O` [Dexamethasone Phosphate], the “Fibrin % cell toxicity” value in the data set with primary rat microglia [1] (rat) stood at 5%. Further, in data set [2] (setting [6]), the “Quadrant (FIG. 5b)” value is listed as “Q2”. Moreover, the “LPS % cell toxicity” value with primary rat microglia [5] (rat) worked out at 2%.

On to `C[C@@H]1C[C@H]2[C@@H]3CCC4=CC(=O)C=C[C@]4(C)[C@@]3(F)[C@@H](O)C[C@]2(C)[C@@]1(O)C(=O)COP(=O)(O)O` [Dexamethasone sodium phosphate, reference compound], for which the “Fibrin % cell toxicity” value with primary rat microglia [1] (rat) came to 2%. In data set [2], the “Quadrant (FIG. 5b)” value is on record as “Q2”. Moreover, the inhibition at 10 µM in data set [2] (read-out: Cherry-picked Hit (Suppl. Table 7)) and in data set [2] (read-out: Hit) was above 50% each time. In addition, the “LPS % cell toxicity” value in the data set on primary rat microglia [5] (rat) was determined as 3%.

For `CCN(CC)CCOC(=O)C1(C2CCCCC2)CCCCC1` [Dicyclomine], the “Fibrin % cell toxicity” value with primary rat microglia [1] (rat) worked out at 0%. Also, the “Quadrant (FIG. 5b)” value in data set [2] is on record as “Q4”. In addition, the “LPS % cell toxicity” value in the data set on primary rat microglia [5] (rat) was 0%.

Consider `Cn1c(=O)c2c(ncn2CC2OCCO2)n(C)c1=O` [Doxofylline], for which the “Fibrin % cell toxicity” value in the data set with primary rat microglia [1] (rat) is 0%. In addition, in data set [2] (setting [7]), the “Quadrant (FIG. 5b)” value is given as “Q4”. Besides, the inhibition at 10 µM in data set [3] (setting [8]) was 18%; in data set [4] (setting [9]), -42%.

With `CCOc1cc(NC(C)=O)ccc1C(=O)OC` [Ethopabate], the “Fibrin % cell toxicity” value in the data set with primary rat microglia [1] (rat) is recorded as 0%. In addition, the “Quadrant (FIG. 5b)” value in data set [2] is recorded as “Q4”. Besides, the “LPS % cell toxicity” value with primary rat microglia [5] (rat) stood at 0%.

Regarding `C=C1C[C@@H]2[C@H](CC[C@]3(C)C(=O)CC[C@@H]23)[C@@]2(C)C=CC(=O)C=C12` [Exemestane], the “Fibrin % cell toxicity” value with primary rat microglia [1] (rat) is 1%. The “Quadrant (FIG. 5b)” value in data set [2] (setting [7]) is “Q4”. The inhibition at 10 µM in data set [3] (setting [8]) came to 21%; in data set [4] (setting [9]) it was 22%. In data set [3] (primary microglia HTS, LPS stimulation, compounds at 10 μM; 10 µM), this compound returned an LPS % inhibition of 34%. In data set [4] (primary microglia HTS, fibrin stimulation, compounds at 10 μM, 10 µM), the Fibrin % inhibition turned out to be 31%.

For the compound `CC(C)OC(=O)C(C)(C)Oc1ccc(C(=O)c2ccc(Cl)cc2)cc1` [Fenofibrate], the “Fibrin % cell toxicity” value in the data set on primary rat microglia [1] (rat) amounted to 1%. Also, the “Quadrant (FIG. 5b)” value in data set [2] (setting [7]) is on record as “Q4”. Besides, the “LPS % cell toxicity” value in the data set on primary rat microglia [5] (rat) amounted to 0%.

As for `O=c1[nH]c(=O)n([C@H]2C[C@H](O)[C@@H](CO)O2)cc1F` [Floxuridine], the “Fibrin % cell toxicity” value with primary rat microglia [1] (rat) came to 1%. The “Quadrant (FIG. 5b)” value in data set [2] (setting [6]) was “Q4”. The “LPS % cell toxicity” value in the data set on primary rat microglia [5] (rat) was determined as 0%.

Take `CN1C2CCCC1CC(NC(=O)c1nn(C)c3ccccc13)C2` (centres unmarked) [Granisetron Hydrochloride]: in the data set with primary rat microglia [1] (rat), the “Fibrin % cell toxicity” value was determined as 0%. Further, the “Quadrant (FIG. 5b)” value in data set [2] (setting [6]) was “Q4”. In addition, the “LPS % cell toxicity” value with primary rat microglia [5] (rat) amounted to 0%.

In the case of `CN1C2CCCC1CC(NC(=O)c1nn(C)c3ccccc13)C2` (centres unmarked) [Granisetron], the “Fibrin % cell toxicity” value with primary rat microglia [1] (rat) stood at 1%. Further, in data set [2] (setting [6]), the “Quadrant (FIG. 5b)” value is recorded as “Q4”. The “LPS % cell toxicity” value in the data set with primary rat microglia [5] (rat) is 0%.

Take `CC(C)Cn1cnc2c(N)nc3ccccc3c21` [Imiquimod]: in the data set on primary rat microglia [1] (rat), the “Fibrin % cell toxicity” value is listed as 0%. Further, the “Quadrant (FIG. 5b)” value in data set [2] is listed as “Q4”. Moreover, in the data set on primary rat microglia [5] (rat), the “LPS % cell toxicity” value stood at 0%.

Consider `CS(=O)(=O)CCNCc1ccc(-c2ccc3ncnc(Nc4ccc(OCc5cccc(F)c5)c(Cl)c4)c3c2)o1` [Lapatinib], for which the “Fibrin % cell toxicity” value in the data set with primary rat microglia [1] (rat) is 1%. Further, in data set [2] (setting [6]), the “Quadrant (FIG. 5b)” value is “Q4”. In addition, in the data set on primary rat microglia [5] (rat), the “LPS % cell toxicity” value is reported as 0%.

`CC[C@H](C)C(=O)O[C@H]1C[C@@H](C)C=C2C=C[C@H](C)[C@H](CC[C@@H]3C[C@@H](O)CC(=O)O3)[C@H]21` [Lovastatin]: in the data set on primary rat microglia [1] (rat), the “Fibrin % cell toxicity” value was determined as 3%. For the same compound, in data set [2], the “Quadrant (FIG. 5b)” value is on record as “Q2”. The inhibition at 10 µM in data set [3] (setting [10]) turned out to be 87%; in data set [4], 106%.

Take `CN(C)CCN(Cc1cccs1)c1ccccn1` [Methapyrilene]: the “Fibrin % cell toxicity” value in the data set on primary rat microglia [1] (rat) is recorded as 1%. In addition, the “Quadrant (FIG. 5b)” value in data set [2] is listed as “Q4”. Also, the “LPS % cell toxicity” value in the data set with primary rat microglia [5] (rat) came to 0%.

Consider `CC1(C)NC(=O)N(c2ccc([N+](=O)[O-])c(C(F)(F)F)c2)C1=O` [Nilutamide], for which, in the data set on primary rat microglia [1] (rat), the “Fibrin % cell toxicity” value is recorded as 1%. Further, in data set [2] (setting [6]), the “Quadrant (FIG. 5b)” value is on record as “Q4”. Besides, the “LPS % cell toxicity” value with primary rat microglia [5] (rat) stood at 0%.

Regarding `C#C[C@]1(O)CC[C@H]2[C@@H]3CCC4=CC(=O)CC[C@@H]4[C@H]3CC[C@@]21C` [Norethindrone], the “Fibrin % cell toxicity” value in the data set with primary rat microglia [1] (rat) came out at 0%. For the same compound, in data set [2], the “Quadrant (FIG. 5b)” value is reported as “Q4”. In data set [3], the LPS % inhibition stood at 15%. For the same compound, the inhibition at 10 µM in data set [4] was found to be 9%.

Consider `C#C[C@]1(O)CC[C@H]2[C@@H]3CCC4=CC(=O)CC[C@@H]4[C@H]3CC[C@@]21C` [Norethisterone], for which the “Fibrin % cell toxicity” value with primary rat microglia [1] (rat) was 1%. Moreover, in data set [2], the “Quadrant (FIG. 5b)” value is on record as “Q4”. In data set [3], this compound displayed an LPS % inhibition of 1%. Further, the Fibrin % inhibition in data set [4] is listed as 18%.

In the case of `Cc1ccccc1C(OCCN(C)C)c1ccccc1` (centres unmarked) [Orphenadrine], the “Fibrin % cell toxicity” value in the data set on primary rat microglia [1] (rat) is recorded as 0%. In addition, the “Quadrant (FIG. 5b)” value in data set [2] is “Q4”. The “LPS % cell toxicity” value in the data set on primary rat microglia [5] (rat) is on record as 0%.

For the compound `C[C@@H]1O[C@@H](O[C@H]2C[C@@H](O)[C@]3(CO)[C@H]4[C@H](O)C[C@]5(C)[C@@H](C6=CC(=O)OC6)CC[C@]5(O)[C@@H]4CC[C@]3(O)C2)[C@H](O)[C@H](O)[C@H]1O` [Ouabain], the “Fibrin % cell toxicity” value in the data set with primary rat microglia [1] (rat) worked out at 0%. Further, the “Quadrant (FIG. 5b)” value in data set [2] (setting [6]) is given as “Q4”. The “LPS % cell toxicity” value in the data set with primary rat microglia [5] (rat) is 0%.

For `[H]/N=C(/N)N/C(=N/[H])NCCc1ccccc1` [Phenformin], the “Fibrin % cell toxicity” value in the data set on primary rat microglia [1] (rat) was determined as 1%. In data set [2], the “Quadrant (FIG. 5b)” value is “Q4”. Besides, the results for the inhibition at 10 µM in data set [3] (setting [10]) and in data set [4] were 13% and -30%, respectively.

In the case of `CC(=O)[O-].[Hg+][c]1ccccc1` [Phenylmercuric Acetate], in the data set on primary rat microglia [1] (rat), the “Fibrin % cell toxicity” value is 82%. Besides, the “LPS % cell toxicity” value in the data set with primary rat microglia [5] (rat) came out at 80%.

With `CC(=O)c1ccc2c(c1)N(CCCN1CCC(CCO)CC1)c1ccccc1S2` [Piperacetazine], in the data set with primary rat microglia [1] (rat), the “Fibrin % cell toxicity” value is 0%. In data set [2] (setting [11]), the “Quadrant (FIG. 5b)” value is “Q4”. Also, the inhibition at 10 µM in data set [3] (setting [12]) is 48%; in data set [4] (setting [13]), -32%.

Take `CCC1(c2ccccc2)C(=O)NCNC1=O` [Primidone]: the “Fibrin % cell toxicity” value with primary rat microglia [1] (rat) was determined as 1%. The “Quadrant (FIG. 5b)” value in data set [2] was “Q4”. Also, the inhibition at 10 µM in data set [3] (setting [10]) was 12%; in data set [4] it was -15%.

For `O=C(O)c1ccccc1O` [Salicylic Acid], the “Fibrin % cell toxicity” value with primary rat microglia [1] (rat) came to 0%. Also, the “Quadrant (FIG. 5b)” value in data set [2] (setting [11]) is “Q4”. Further, the inhibition at 10 µM in data set [3] (setting [12]) was 14%; in data set [4] (setting [13]), -32%.

Consider Pyrethrins, for which the “Fibrin % cell toxicity” value with primary rat microglia [1] is reported as 0%. For the same compound, in the data set with primary rat microglia [5], the “LPS % cell toxicity” value came to 0%.
